Measurements from US9095617B2, “Surgical adjuvant composition and associated methods of use” (Soteria Industries, Inc., priority 2010, dated 2015).

System: Bovine chondrocytes
Assay: Viability of isolated chondrocytes suspended 12 hrs at 37° C. in various solutions (membrane integrity dyes)
Type: cell-based
Details: bupivacaine 1.25 mg/mL [0.125%]
Experimental: FIG. 7: Bovine chondrocytes suspended for 12 hrs. at 37° C. in various solutions of phosphate buffered saline (PBS), bupivacaine (1.25 mg/mL [0.125%]), arthroguard and saline. In these experiments, 2.5 mg/mL [0.25%] bupivacaine was combined with arthroguard to yield a final concentration of 1.25 mg/mL [0.125%] bupivacaine in arthroguard. for 12 hrs. Cell viability is assessed by membrane integrity dyes.

For CCCCN1CCCCC1C(=O)Nc1c(C)cccc1C (stereo not shown) [bupivicaine, bupivacaine], the “amount of cell death of isolated chondrocytes exposed to bupivicaine” value was “increases the amount of cell death”.
